Laboratory results reported in PMC5903342 (Oxidative Medicine and Cellular Longevity, 2018).

Assays:
[1] = DPPH free radical scavenging assay; assay type: biochemical; conditions: absorbance at 517 nm
Procedure: The free radical scavenging activity was measured by following microplate procedures as previously described. One hundred microliters of the sample dilutions with five concentration levels (varying from 0 to 2000 μM in DMSO) was added to two identical groups of wells in a 96-well microplate. The same volume of 0.1 mM DPPH-methanol solution was added to each well of one group (samples), and methanol ([…]) was added to the other group (blanks). The control was prepared by mixing the DPPH-methanol solution with the sample solvent or butylated hydroxytoluene (BHT). The solutions were mixed thoroughly, covered, and allowed to react in the dark at room temperature for 40 min. The absorbance was measured at 517 nm using a microplate reader (Quant, BioTek Instruments Inc.), and the scavenging activity was calculated from the absorbance values according to the following equation: […]. The antioxidant properties of the samples were expressed as half the maximal effective concentrations (EC50) obtained by interpolation from the linear regression analysis. BHT was used as the positive control.

[2] = test system: S. enterica serovar typhimurium-tested strains; assay: Cytotoxic effect in bacterial strains (CFU survival); assay type: cell-based, Salmonella enterica serovar typhimurium; conditions: presence and absence of exogenous metabolic activation (data not shown)
Procedure: To determine the cytotoxic effect, after 60 min incubation, the assay mixtures were diluted in 0.9% NaCl (w/v) to obtain a suspension containing 2 × 10^2 cells/mL. A suitable aliquot (100 μL) of this suspension was plated on nutrient agar (0.8% bacto nutrient broth (Difco), 0.5% NaCl, and 1.5% agar). The plates were then incubated at 37°C for 24 h, and the colony-forming units (CFU) were counted to obtain the percentage of survival. All the experiments were done in triplicate and were repeated at least twice.

[3] = test system: HepG2 cells; assay: Flow cytometry cell cycle analysis; assay type: cell-based, Human; conditions: 24 h
Procedure: The cells (1 × 10^5) were washed in PBS solution and centrifuged at 400 ×g for 5 min, and after, the cells were suspended in DNA staining solution (0.3% Triton X-100 and 50 μg/mL propidium iodide (PI) in a 43 mM citrate buffer), as previously described. After 45 minutes of treatment with 50 μg/mL ribonuclease A (Sigma, EUA), the PI fluorescence was determined (10,000 events per sample) in a Gallios flow cytometer (Beckman Coulter, USA). Data were analyzed by the Summit v4.3 software. The experiments were done at least three times, and statistical analysis was performed by one-way ANOVA followed by a Tukey's post hoc test.

[4] = test system: Salmonella enterica serovar typhimurium TA104; assay: Antimutagenicity assay (Salmonella/microsome), strain TA104; assay type: cell-based; conditions: TA104, cotreatment
Text: Salmonella enterica serovar typhimurium (S. typhimurium) strains TA100, TA1535, TA104, and TA102 from the authors' laboratory stock were used as described by Maron and Ames in the antimutagenicity assay.
We carried out the coexposure protocol of the antimutagenicity assay to investigate the potential of the compound to protect against alkylation-mediated genetic mutation in S. typhimurium TA100, TA102, TA104, and TA1535 strains according to Ajith and Soja. The test proceeded both in the absence and presence of a metabolic activation system (4% S9 mix, Aroclor preinduced, from MOLTOX Inc., USA). DMSO 1% served as the negative control. […] The mixtures were incubated in a shaker at 37°C (preincubation) under light protection. After a total of 60 min of cotreatment, the mixtures were added to and mixed with 2 mL top agar containing 0.05 mmol/L L-histidine and D-biotin for the S. typhimurium strains. Each of these was then spread on a minimal glucose agar (1.5% agar, Vogel-Bonner medium E, containing 2% glucose) plate. After the top agar solidified, the plates were incubated at 37°C for 60–72 h. Each tester strain was assayed in triplicate and repeated at least twice, and the number of revertant colonies was counted for each tester strain and treatment group. The counts of revertant colonies were obtained to build a dose-response curve and calculate the percentage of reduction.

[5] = test system: Salmonella enterica serovar typhimurium TA100; assay: Antimutagenicity assay (Salmonella/microsome), strain TA100 (co-, pre- and posttreatment); assay type: cell-based
[6] = +S9, CPA (150 μM), atorvastatin 20 μM
[7] = +S9, CPA (150 μM), atorvastatin 100 μM
[8] = +S9, CPA (150 μM), atorvastatin 200 μM
[9] = +S9, CPA (150 μM), atorvastatin 1000 μM
[10] = −S9, MMS (100 μM), atorvastatin 20 μM
[11] = −S9, MMS (100 μM), atorvastatin 100 μM
[12] = −S9, MMS (100 μM), atorvastatin 200 μM
[13] = −S9, MMS (100 μM), atorvastatin 1000 μM
[14] = TA100, cotreatment, +S9, CPA (150 μM), atorvastatin 20 μM
[15] = TA100, cotreatment, +S9, CPA (150 μM), atorvastatin 100 μM
[16] = TA100, cotreatment, +S9, CPA (150 μM), atorvastatin 200 μM
[17] = TA100, cotreatment, +S9, CPA (150 μM), atorvastatin 1000 μM
[18] = TA100, cotreatment, −S9, MMS (100 μM), atorvastatin 20 μM
[19] = TA100, cotreatment, −S9, MMS (100 μM), atorvastatin 100 μM
[20] = TA100, cotreatment, −S9, MMS (100 μM), atorvastatin 200 μM
[21] = TA100, cotreatment, −S9, MMS (100 μM), atorvastatin 1000 μM
[22] = TA100, posttreatment, +S9, CPA (150 μM), atorvastatin 20 μM
[23] = TA100, posttreatment, +S9, CPA (150 μM), atorvastatin 200 μM
[24] = TA100, posttreatment, +S9, CPA (150 μM), atorvastatin 1000 μM
[25] = TA100, posttreatment, −S9, MMS (100 μM), atorvastatin 20 μM
[26] = TA100, posttreatment, −S9, MMS (100 μM), atorvastatin 100 μM
[27] = TA100, posttreatment, −S9, MMS (100 μM), atorvastatin 200 μM
[28] = TA100, posttreatment, −S9, MMS (100 μM), atorvastatin 1000 μM
[29] = TA100, pretreatment, +S9, CPA (150 μM), atorvastatin 20 μM
[30] = TA100, pretreatment, +S9, CPA (150 μM), atorvastatin 100 μM
[31] = TA100, pretreatment, +S9, CPA (150 μM), atorvastatin 200 μM
[32] = TA100, pretreatment, +S9, CPA (150 μM), atorvastatin 1000 μM
[33] = TA100, pretreatment, −S9, MMS (100 μM), atorvastatin 20 μM
[34] = TA100, pretreatment, −S9, MMS (100 μM), atorvastatin 100 μM
[35] = TA100, pretreatment, −S9, MMS (100 μM), atorvastatin 200 μM
[36] = TA100, pretreatment, −S9, MMS (100 μM), atorvastatin 1000 μM

For `CC(C)c1c(C(=O)Nc2ccccc2)c(-c2ccccc2)c(-c2ccc(F)cc2)n1CC[C@@H](O)C[C@@H](O)CC(=O)O` [AVA, atorvastatin], the EC50 [1] was 274 ± 3 µM, the “Cytotoxic effect to bacterial strains” value [2] was “no cytotoxic effect” and the Cell cycle pattern ([3]; 25 μM AVA alone, in comparison to the control) was “did not induce alterations”. The “Effect on G1, S and G2 phases” value ([3]; AVA and CPA cotreatment) was “did not affect”, the “Effect on G1 and S phases” value ([3]; AVA and MMS cotreatment) was “did not affect” and the “Number of cells in the G2 phase” value ([3]; AVA and MMS cotreatment) was “restored”. The “sub-G1 percentage of cells” value ([3]; cotreatment 20 μM MMS + AVA 1 μM) was 12%, the “sub-G1 percentage of cells” value ([3]; cotreatment 20 μM MMS + AVA 10 μM) was 4% and the “sub-G1 percentage of cells” value ([3]; cotreatment 20 μM MMS + AVA 25 μM) was 2%. For the same compound, the polyploid subpopulation ([3]; cotreatment AVA + 20 μM MMS) was 3-4%, the “sub-G1 percentage of cells” value ([3]; cotreatment AVA + CPA, no dose dependence) was 3-4% and the Cell cycle pattern ([3]; cotreatment with 25 μM AVA in MMS-exposed (20 μM) cells) was “restored the cell cycle pattern”. The “% reduction” value [4, 6] was 19.29%, the “His+ (revertant colonies)” value [4, 6] was 969 ± 54 and the “% reduction” value [4, 7] was 25%. For the same compound, the “His+ (revertant colonies)” value [4, 7] was 933 ± 38, the “% reduction” value ([4]; +S9, CPA (150 μM), atorvastatin 100 μM, listed as Atorvastatin) was 25.00^∗ % and the “% reduction” value [4, 8] was 29%. For the same compound, the “His+ (revertant colonies)” value [4, 8] was 905 ± 42, the “% reduction” value ([4]; +S9, CPA (150 μM), atorvastatin 200 μM, listed as Atorvastatin) was 29.29^∗ % and the “% reduction” value [4, 9] was 41%. For the same compound, the “His+ (revertant colonies)” value [4, 9] was 829 ± 11, the “% reduction” value ([4]; +S9, CPA (150 μM), atorvastatin 1000 μM, listed as Atorvastatin) was 41.43^∗ % and the “% reduction” value [4, 10] was 19.36%. The “His+ (revertant colonies)” value [4, 10] was 801 ± 32, the “% reduction” value [4, 11] was 24.19% and the “His+ (revertant colonies)” value [4, 11] was 776 ± 64. For the same compound, the “% reduction” value [4, 12] was 32.3%, the “His+ (revertant colonies)” value [4, 12] was 736 ± 91 and the “% reduction” value ([4]; −S9, MMS (100 μM), atorvastatin 200 μM, listed as Atorvastatin) was 32.26^∗ %. The “% reduction” value [4, 13] was 55.7%, the “His+ (revertant colonies)” value [4, 13] was 620 ± 28 and the “% reduction” value ([4]; −S9, MMS (100 μM), atorvastatin 1000 μM, listed as Atorvastatin) was 55.65^∗ %. For the same compound, the “% reduction” value [5, 14] was 2.65%, the “His+ (revertant colonies)” value [5, 14] was 235 ± 22 and the “% reduction” value [5, 15] was 6.19%. For the same compound, the “His+ (revertant colonies)” value [5, 15] was 230 ± 31, the “% reduction” value [5, 16] was 11.50% and the “His+ (revertant colonies)” value [5, 16] was 224 ± 15. The “% reduction” value [5, 17] was 17.70%, the “His+ (revertant colonies)” value [5, 17] was 216 ± 25 and the “% reduction” value [5, 18] was 7.14%. For the same compound, the “His+ (revertant colonies)” value [5, 18] was 204 ± 18, the “% reduction” value [5, 19] was 12.5% and the “His+ (revertant colonies)” value [5, 19] was 198 ± 22. The “% reduction” value [5, 20] was 19.64%, the “His+ (revertant colonies)” value [5, 20] was 190 ± 13 and the “% reduction” value [5, 21] was 23.21%. The “His+ (revertant colonies)” value [5, 21] was 186 ± 14, the “Reduction of DNA injuries caused by MMS or CPA” value ([5]; TA100, posttreatment) was “not able to reduce” and the “% reduction” value [5, 22] was 12.04%. The “His+ (revertant colonies)” value [5, 22] was 257 ± 5, the “% reduction” value ([5]; TA100, posttreatment, +S9, CPA (150 μM), atorvastatin 100 μM) was 17.44% and the “% reduction” value [5, 23] was 18.49%. For the same compound, the “His+ (revertant colonies)” value [5, 23] was 216 ± 8, the “% reduction” value [5, 24] was 21.48% and the “His+ (revertant colonies)” value [5, 24] was 207 ± 23. For the same compound, the “% reduction” value [5, 25] was 5.69%, the “His+ (revertant colonies)” value [5, 25] was 257 ± 26 and the “% reduction” value [5, 26] was 11.86%. The “His+ (revertant colonies)” value [5, 26] was 248 ± 23, the “% reduction” value [5, 27] was 20.10% and the “His+ (revertant colonies)” value [5, 27] was 237 ± 22. For the same compound, the “% reduction” value [5, 28] was 23.00%, the “His+ (revertant colonies)” value [5, 28] was 233 ± 26 and the “% reduction” value [5, 29] was 79.4^∗ %. For the same compound, the “His+ (revertant colonies)” value [5, 29] was 130 ± 30, the “% reduction” value [5, 30] was 81.6^∗ % and the “His+ (revertant colonies)” value [5, 30] was 127 ± 19. The “% reduction” value [5, 31] was 92.59^∗ %, the “His+ (revertant colonies)” value [5, 31] was 111 ± 9 and the “% reduction” value [5, 32] was 97.92^∗ %. The “His+ (revertant colonies)” value [5, 32] was 103 ± 2, the Antimutagenic activity ([5]; TA100, pretreatment, all concentrations, presence and absence of metabolic conditions) was “exerted antimutagenic activity” and the “% reduction” value [5, 33] was 45.97^∗ %. For the same compound, the “His+ (revertant colonies)” value [5, 33] was 171 ± 14, the “% reduction” value [5, 34] was 88.57^∗ % and the “His+ (revertant colonies)” value [5, 34] was 117 ± 2. The “% reduction” value [5, 35] was 91.43^∗ %, the “His+ (revertant colonies)” value [5, 35] was 113 ± 6 and the “% reduction” value [5, 36] was 98.7^∗ %. The “His+ (revertant colonies)” value [5, 36] was 103 ± 4.
